Assay results from patent publication US11236073B2, “ODM-201 crystalline form, preparation method therefor, and pharmaceutical composition thereof” (Hangzhou SoliPharma Co., Ltd., priority 2017, dated 2022).
Values after ≈ are worked out from the molar mass of the structure shown. “Also recorded” adds a separate entry of the source.

Tests used:
Format in all cases: physicochemical
[1] = Crystalline form stability experiment (XRD after storage); details: stored 7 days at high temperature 60° C., high moisture content 97% RH, and 40° C.-75% RH
Procedure: X-ray powder diffraction (XRPD): performed on Bruker D8 Advance diffractometer. Samples were tested at room temperature. Testing conditions: scan range 3-40° 2θ, step size 0.02°2θ, and speed 0.2 s/step.
Crystalline form stability experiment: 15 mg of amorphous ODM-201, ODM-201 Form 1, ODM-201 Form 2, ODM-201 Form 4 and ODM-201 Form 5 in the present invention were respectively placed under the following different conditions: high temperature 60° C., high moisture content 97% RH, and 40° C.-75% RH. The samples were stored for 7 days before analyzed by XRD crystalline form measurements.

[2] = Chemical stability experiment (HPLC purity after storage); details: for reduction of chemical purity after storage: dry condition (desiccator) at 60° C. for 7 days; for Purity (%): dry condition at 60° C., HPLC
Procedure: HPLC purity data were collected on Ultimate 3000 high performance liquid chromatography under the following conditions: column AY-H (4.6*100 mm, 5 μm) detection wavelength 270 nm, column temperature 40° C., flow rate 0.8 mL/min, injection volume 5 μL. The sample was dissolved in ethanol to make a solution concentration about 1 mg/mL, and a gradient method using HPLC measurements to determine the purity of the sample. […]

[3] = Apparent water solubility; details: stirred 1 hour
Procedure: ODM-201 Form 1, ODM-201 Form 2, ODM-201 Form 3, ODM-201 Form 4 and ODM-201 Form 5 in the present invention were tested for the apparent water solubility, and the specific operations were as follows.
Weighed accurately and placed 15 mg of sample in a 20 mL glass vial containing 5 mL of water, and placed the vials at 25±2° C. and 37±2° C. water bath respectively, stirred in dark (about 200 rpm/min) for 1 hour, filtered with a 0.45 µm filter and took the supernatant, diluted to a certain concentration, analyzed the concentration by HPLC.

[4] = Isothermal sorption / dynamic vapor sorption (hygroscopicity); details: between 0% RH and 80% RH
Procedure: Dynamic vapor sorption data and isothermal sorption data were collected on TA Instruments Q5000 TGA. Method: A sample of 1 to 10 mg was placed in a platinum pan; the weight change of the sample during the change in relative humidity from 0% to 80% to 0% was measured.

| Structure (SMILES) | Purity (%) ([2]; 1 day) | Purity (%) ([2]; 7 days) | Solubility ([3]; 25 ± 2° C.) | Solubility ([3]; 37 ± 2° C.) | moisture sorption (weight change) [4] | The test results after 7 days (crystalline form by XRD) ([1]; listed as ODM-201 amorphous form) | The test results after 7 days (crystalline form by XRD) [1] | reduction of chemical purity after storage [2] |
| --- | --- | --- | --- | --- | --- | --- | --- | --- |
| CC(O)c1cc(C(=O)N[C@@H](C)Cn2ccc(-c3ccc(C#N)c(Cl)c3)n2)n[nH]1 (stereo partly drawn) [ODM-201 Form 1, N—((S)-1-(3-(3-chloro-4-cyanophenyl)-1H-pyrazol-1-yl)prop-2-yl)-5-(1-hydroxyethyl)-1H-pyrazole-3-carboxamide] | 99.7% | 99.6% | – | 17.4 µg/mL (≈ 43.6 µM) | less than 0.3% | – | keeps its form unchanged; also recorded: kept their original crystalline forms; also recorded: Form 1 | essentially unchanged; also recorded: still kept their original respective purity level |
| CC(O)c1cc(C(=O)N[C@@H](C)Cn2ccc(-c3ccc(C#N)c(Cl)c3)n2)n[nH]1 (stereo partly drawn) [ODM-201 Form 2, N—((S)-1-(3-(3-chloro-4-cyanophenyl)-1H-pyrazol-1-yl)prop-2-yl)-5-(1-hydroxyethyl)-1H-pyrazole-3-carboxamide] | 99.6% | 99.6% | 27.6 µg/mL (≈ 69.2 µM) | 54.8 µg/mL (≈ 137 µM) | 2.5% | – | kept their original crystalline forms; also recorded: keeps its form unchanged; also recorded: Form 2 | still kept their original respective purity level; also recorded: essentially unchanged |
| CC(O)c1cc(C(=O)N[C@@H](C)Cn2ccc(-c3ccc(C#N)c(Cl)c3)n2)[nH]n1 (stereo partly drawn) [ODM-201 Form 3, N—((S)-1-(3-(3-chloro-4-cyanophenyl)-1H-pyrazol-1-yl)prop-2-yl)-5-(1-hydroxyethyl)-1H-pyrazole-3-carboxamide] | – | – | 12.5 µg/mL (≈ 31.3 µM) | 24.3 µg/mL (≈ 60.9 µM) | – | – | – | – |
| CC(O)c1cc(C(=O)N[C@@H](C)Cn2ccc(-c3ccc(C#N)c(Cl)c3)n2)n[nH]1 (stereo partly drawn) [ODM-201 Form 4, N—((S)-1-(3-(3-chloro-4-cyanophenyl)-1H-pyrazol-1-yl)prop-2-yl)-5-(1-hydroxyethyl)-1H-pyrazole-3-carboxamide] | 99.2% | 99.1% | 59.5 µg/mL (≈ 149 µM) | 88.6 µg/mL (≈ 222 µM) | less than 0.2% | – | kept their original crystalline forms; also recorded: keeps its form unchanged; also recorded: Form 4 | still kept their original respective purity level; also recorded: essentially unchanged |

More lines, main results first:

| Purity (%) ([2]; 1 day) | Purity (%) ([2]; 7 days) | Solubility ([3]; 25 ± 2° C.) | Solubility ([3]; 37 ± 2° C.) | moisture sorption (weight change) [4] | The test results after 7 days (crystalline form by XRD) ([1]; listed as ODM-201 amorphous form) | Structure (SMILES) | The test results after 7 days (crystalline form by XRD) [1] | reduction of chemical purity after storage [2] |
| --- | --- | --- | --- | --- | --- | --- | --- | --- |
| 99.6% | 99.5% | 17.7 µg/mL (≈ 44.4 µM) | 29.5 µg/mL (≈ 74 µM) | less than 0.5% | – | CC(O)c1cc(C(=O)N[C@@H](C)Cn2ccc(-c3ccc(C#N)c(Cl)c3)n2)n[nH]1 (stereo partly drawn) [ODM-201 Form 5, N—((S)-1-(3-(3-chloro-4-cyanophenyl)-1H-pyrazol-1-yl)prop-2-yl)-5-(1-hydroxyethyl)-1H-pyrazole-3-carboxamide] | kept their original crystalline forms; also recorded: keeps its form unchanged; also recorded: Form 5 | still kept their original respective purity level; also recorded: essentially unchanged |
| 99.7% | 98.2% | – | – | 6.4% | began to show a weak crystalline state | CC(O)c1cc(C(=O)N[C@@H](C)Cn2ccc(-c3ccc(C#N)c(Cl)c3)n2)n[nH]1 (stereo partly drawn) [amorphous ODM-201, N—((S)-1-(3-(3-chloro-4-cyanophenyl)-1H-pyrazol-1-yl)prop-2-yl)-5-(1-hydroxyethyl)-1H-pyrazole-3-carboxamide, reference compound] | begins to show a weak crystalline state; also recorded: Amorphous with weak crystalline peaks | more than 1% |
